Converted amounts (≈) assume the structure as drawn.
Key:
Type in all cases: functional
Escherichia coli [1] = experiment: Antimicrobial activity against Escherichia coli
Bacillus subtilis = experiment: Antimicrobial activity against Bacillus subtilis
Pseudomonas aeruginosa [2] = experiment: Antimicrobial activity against Pseudomonas aeruginosa
Staphylococcus aureus [3] = experiment: Antimicrobial activity against Staphylococcus aureus
Candida albicans [4] = experiment: Antifungal activity against Candida albicans
Aspergillus niger [5] = experiment: Antifungal activity against Aspergillus niger
Bacillus cereus = experiment: Antimicrobial activity against Bacillus cereus assessed as zone of inhibition at 250 ug/ml; details: read-out: IZ
Staphylococcus aureus [6] = experiment: Antimicrobial activity against Staphylococcus aureus assessed as zone of inhibition at 250 ug/ml; details: read-out: IZ
Aspergillus niger [7] = experiment: Antifungal activity against Aspergillus niger assessed as zone of inhibition at 250 ug/ml; details: read-out: IZ
Candida albicans [8] = experiment: Antifungal activity against Candida albicans assessed as zone of inhibition at 250 ug/ml; details: read-out: IZ
Escherichia coli [9] = experiment: Antimicrobial activity against Escherichia coli assessed as zone of inhibition at 250 ug/ml; details: read-out: IZ
Pseudomonas aeruginosa [10] = experiment: Antimicrobial activity against Pseudomonas aeruginosa assessed as zone of inhibition at 250 ug/ml; details: read-out: IZ

Compound | MIC (Escherichia coli [1]) | MIC (Bacillus subtilis) | MIC (Pseudomonas aeruginosa [2]) | MIC (Staphylococcus aureus [3]) | other results
COc1ccc(/C=C2\SC(=O)N(Cc3ccc(-c4ccccc4-c4nnn[nH]4)cc3)C2=O)cc1OC | 7.75 to 35.4 µg/mL (≈ 15.5 to 70.9 µM) | 7.75 to 35.4 µg/mL (≈ 15.5 to 70.9 µM) | – | – | –
Cc1ccc2cc(/C=C/C(=O)c3ccc(Cl)cc3)c3nnnn3c2c1 | 6.25 to 100 µg/mL (≈ 17.9 to 287 µM) | – | 6.25 to 100 µg/mL (≈ 17.9 to 287 µM) | 6.25 to 100 µg/mL (≈ 17.9 to 287 µM) | MIC (Candida albicans [4]): 6.25 to 100 µg/mL (≈ 17.9 to 287 µM); MIC (Aspergillus niger [5]): 6.25 to 100 µg/mL (≈ 17.9 to 287 µM)
N#Cc1cn2c(NC3CCCCC3)c(-c3cc4ccccc4n4nnnc34)nc2s1 | > 320 µg/mL | – | > 320 µg/mL | > 320 µg/mL | –
COc1ccc(/C=C2\SC(=O)N(Cc3ccc(-c4ccccc4-c4nnn[nH]4)cc3)C2=O)c(OC)c1 | 7.75 to 35.4 µg/mL (≈ 15.5 to 70.9 µM) | 7.75 to 35.4 µg/mL (≈ 15.5 to 70.9 µM) | – | – | –
Cc1ccc2c(c1)cc(C1CC(c3cccs3)=NN1C(N)=S)c1nnnn12 (centres undefined) | 3.12 to 100 µg/mL (≈ 7.94 to 254 µM) | – | 3.12 to 100 µg/mL (≈ 7.94 to 254 µM) | 3.12 to 100 µg/mL (≈ 7.94 to 254 µM) | MIC (Candida albicans [4]): 3.12 to 100 µg/mL (≈ 7.94 to 254 µM); MIC (Aspergillus niger [5]): 3.12 to 100 µg/mL (≈ 7.94 to 254 µM)
Cc1ccc2cc(/C=C/C(=O)c3ccccc3)c3nnnn3c2c1 | 6.25 to 100 µg/mL (≈ 19.9 to 318 µM) | – | 6.25 to 100 µg/mL (≈ 19.9 to 318 µM) | 6.25 to 100 µg/mL (≈ 19.9 to 318 µM) | MIC (Candida albicans [4]): 6.25 to 100 µg/mL (≈ 19.9 to 318 µM); MIC (Aspergillus niger [5]): 6.25 to 100 µg/mL (≈ 19.9 to 318 µM)
COc1cc(/C=C2\SC(=O)N(Cc3ccc(-c4ccccc4-c4nnn[nH]4)cc3)C2=O)cc(OC)c1OC | 7.75 to 35.4 µg/mL (≈ 14.6 to 66.9 µM) | 7.75 to 35.4 µg/mL (≈ 14.6 to 66.9 µM) | – | – | –
CC(=O)N1N=C(Cn2cc(-c3nn(-c4ccncc4)cc3-c3nnnn3-c3ccc(Br)cc3)c3cc(Cl)ccc32)OC1(C)c1ccc(C(F)(F)F)cc1 (centres undefined) | – | – | – | – | zone of inhibition at 250 µg/mL (Bacillus cereus): 8 to 20 mm; zone of inhibition at 250 µg/mL (Staphylococcus aureus [6]): 8 to 20 mm; zone of inhibition at 250 µg/mL (Aspergillus niger [7]): 8 to 20 mm; zone of inhibition at 250 µg/mL (Candida albicans [8]): 8 to 20 mm; zone of inhibition at 250 µg/mL (Escherichia coli [9]): 8 to 20 mm; zone of inhibition at 250 µg/mL (Pseudomonas aeruginosa [10]): 8 to 20 mm
Cc1cccc2oc(-c3ccc(F)cc3)c(OCc3nnn[nH]3)c(=O)c12 | 50 to 400 µg/mL (≈ 142 to 1140 µM) | 50 to 400 µg/mL (≈ 142 to 1140 µM) | 50 to 400 µg/mL (≈ 142 to 1140 µM) | 50 to 400 µg/mL (≈ 142 to 1140 µM) | –
O=C1S/C(=C\c2ccc(F)cc2)C(=O)N1Cc1ccc(-c2ccccc2-c2nnn[nH]2)cc1 | 7.75 to 35.4 µg/mL (≈ 16.9 to 77.4 µM) | 7.75 to 35.4 µg/mL (≈ 16.9 to 77.4 µM) | – | – | –
c1ccc(C(c2ccccc2)(c2ccccc2)n2nnnc2-c2ccccc2-c2ccc(CNn3cnnc3)cc2)cc1 | 22.4 µg/mL (≈ 40 µM) | 24.8 µg/mL (≈ 44.3 µM) | – | – | –
Cc1ccc2cc(/C=C/C(=O)c3cccs3)c3nnnn3c2c1 | 6.25 to 100 µg/mL (≈ 19.5 to 312 µM) | – | 6.25 to 100 µg/mL (≈ 19.5 to 312 µM) | 6.25 to 100 µg/mL (≈ 19.5 to 312 µM) | MIC (Candida albicans [4]): 6.25 to 100 µg/mL (≈ 19.5 to 312 µM); MIC (Aspergillus niger [5]): 6.25 to 100 µg/mL (≈ 19.5 to 312 µM)
COc1ccc(C(=O)/C=C/c2cc3cc(C)ccc3n3nnnc23)cc1 | 6.25 to 100 µg/mL (≈ 18.1 to 290 µM) | – | 6.25 to 100 µg/mL (≈ 18.1 to 290 µM) | 6.25 to 100 µg/mL (≈ 18.1 to 290 µM) | MIC (Candida albicans [4]): 6.25 to 100 µg/mL (≈ 18.1 to 290 µM); MIC (Aspergillus niger [5]): 6.25 to 100 µg/mL (≈ 18.1 to 290 µM)
O=c1c(OCc2nnn[nH]2)c(-c2ccc(F)cc2)oc2cc(Cl)ccc12 | 50 to 400 µg/mL (≈ 134 to 1070 µM) | 50 to 400 µg/mL (≈ 134 to 1070 µM) | 50 to 400 µg/mL (≈ 134 to 1070 µM) | 50 to 400 µg/mL (≈ 134 to 1070 µM) | –
CC(C)(C)Nc1c(-c2cc3ccccc3n3nnnc23)nc2sc(C#N)cn12 | > 320 µg/mL | – | > 320 µg/mL | > 320 µg/mL | –
COc1cc(Cc2cnc(N)nc2N)cc(OC)c1OC [TRIMETHOPRIM] | 125 µg/mL (≈ 431 µM) | – | 500 µg/mL (≈ 1720 µM) | 250 µg/mL (≈ 861 µM) | –
CC(=O)N1N=C(Cn2cc(-c3nn(-c4ccncc4)cc3-c3nnnn3-c3ccc(C(F)(F)F)cc3)c3cc(Cl)ccc32)OC1(C)c1ccc(C(F)(F)F)cc1 (centres undefined) | – | – | – | – | zone of inhibition at 250 µg/mL (Bacillus cereus): 8 to 20 mm; zone of inhibition at 250 µg/mL (Staphylococcus aureus [6]): 8 to 20 mm; zone of inhibition at 250 µg/mL (Aspergillus niger [7]): 8 to 20 mm; zone of inhibition at 250 µg/mL (Candida albicans [8]): 8 to 20 mm; zone of inhibition at 250 µg/mL (Escherichia coli [9]): 8 to 20 mm; zone of inhibition at 250 µg/mL (Pseudomonas aeruginosa [10]): 8 to 20 mm
O=c1c(OCc2nnn[nH]2)c(-c2ccc(F)cc2)oc2cc(Cl)cc(Cl)c12 | 50 to 400 µg/mL (≈ 123 to 982 µM) | 50 to 400 µg/mL (≈ 123 to 982 µM) | 50 to 400 µg/mL (≈ 123 to 982 µM) | 50 to 400 µg/mL (≈ 123 to 982 µM) | –
COc1ccc(Nc2c(-c3cc4ccccc4n4nnnc34)nc3sccn23)cc1 | > 320 µg/mL | – | > 320 µg/mL | > 320 µg/mL | –
Cc1ccc2c(c1)cc(C1CC(c3ccccc3)=NN1C(N)=S)c1nnnn12 (centres undefined) | 3.12 to 100 µg/mL (≈ 8.07 to 258 µM) | – | 3.12 to 100 µg/mL (≈ 8.07 to 258 µM) | 3.12 to 100 µg/mL (≈ 8.07 to 258 µM) | MIC (Candida albicans [4]): 3.12 to 100 µg/mL (≈ 8.07 to 258 µM); MIC (Aspergillus niger [5]): 3.12 to 100 µg/mL (≈ 8.07 to 258 µM)
COc1ccc(-n2nnnc2-c2cn(-c3ccncc3)nc2-c2cn(CC3=NN(C(C)=O)C(C)(c4ccc(C(F)(F)F)cc4)O3)c3ccc(Cl)cc23)cc1 (centres undefined) | – | – | – | – | zone of inhibition at 250 µg/mL (Bacillus cereus): 8 to 20 mm; zone of inhibition at 250 µg/mL (Staphylococcus aureus [6]): 8 to 20 mm; zone of inhibition at 250 µg/mL (Aspergillus niger [7]): 8 to 20 mm; zone of inhibition at 250 µg/mL (Candida albicans [8]): 8 to 20 mm; zone of inhibition at 250 µg/mL (Escherichia coli [9]): 8 to 20 mm; zone of inhibition at 250 µg/mL (Pseudomonas aeruginosa [10]): 8 to 20 mm
CC(=O)N1N=C(Cn2cc(-c3nn(-c4ccncc4)cc3-c3nnnn3-c3ccc(Cl)cc3)c3cc(Cl)ccc32)OC1(C)c1ccc(C(F)(F)F)cc1 (centres undefined) | – | – | – | – | zone of inhibition at 250 µg/mL (Bacillus cereus): 8 to 20 mm; zone of inhibition at 250 µg/mL (Staphylococcus aureus [6]): 8 to 20 mm; zone of inhibition at 250 µg/mL (Aspergillus niger [7]): 8 to 20 mm; zone of inhibition at 250 µg/mL (Candida albicans [8]): 8 to 20 mm; zone of inhibition at 250 µg/mL (Escherichia coli [9]): 8 to 20 mm; zone of inhibition at 250 µg/mL (Pseudomonas aeruginosa [10]): 8 to 20 mm
COc1ccc(C(=O)/C=C/c2cc3ccc(C)cc3n3nnnc23)cc1 | 6.25 to 100 µg/mL (≈ 18.1 to 290 µM) | – | 6.25 to 100 µg/mL (≈ 18.1 to 290 µM) | 6.25 to 100 µg/mL (≈ 18.1 to 290 µM) | MIC (Candida albicans [4]): 6.25 to 100 µg/mL (≈ 18.1 to 290 µM); MIC (Aspergillus niger [5]): 6.25 to 100 µg/mL (≈ 18.1 to 290 µM)
CC(=O)N1N=C(Cn2cc(-c3nn(-c4ccncc4)cc3-c3nnnn3-c3ccc([N+](=O)[O-])cc3)c3cc(Cl)ccc32)OC1(C)c1ccc(C(F)(F)F)cc1 (centres undefined) | – | – | – | – | zone of inhibition at 250 µg/mL (Bacillus cereus): 8 to 20 mm; zone of inhibition at 250 µg/mL (Staphylococcus aureus [6]): 8 to 20 mm; zone of inhibition at 250 µg/mL (Aspergillus niger [7]): 8 to 20 mm; zone of inhibition at 250 µg/mL (Candida albicans [8]): 8 to 20 mm; zone of inhibition at 250 µg/mL (Escherichia coli [9]): 8 to 20 mm; zone of inhibition at 250 µg/mL (Pseudomonas aeruginosa [10]): 8 to 20 mm
